Results published in patent publication EP4729518A1, “CRYSTAL FORM OF METHIONINE ADENOSYLTRANSFERASE 2A HETEROCYCLIC INHIBITOR, PREPARATION METHOD THEREFOR, AND USE THEREOF” (Nanjing Chia Tai Tianqing Pharmaceutical Co., Ltd., priority 2023, dated 2024).
In brackets after ≈: the same amount, converted by molar mass. Read-outs that look alike come from different tables or passages of the source. Values belong to the molecule of their own block, whether it stands above or below them.

Assays:
MAT2A enzyme = biological target: T1, MAT2A enzyme (Homo sapiens, UniProt P31153); experiment: MAT2A enzymatic assay (Biomol Green, OD620); assay type: biochemical
T1 construct: purchased BPS 71401
Method: • a) First, a 5× MAT2A assay buffer (250 mM Tris-HCl, pH 8.0; 250 mM KCl; 75 mM MgCl2; 0.025% BSA; 0.05% Brij35; 1.5 mM EDTA) was prepared and partially diluted to 1× for later use. • b) Preparation and addition of MAT2A enzyme (BPS, 71401): The MAT2A enzyme was diluted to 3.674 ng/µL (1.67×, final concentration: 2.20 ng/µL) with the 1× MAT2A assay buffer. Using a BioTek (MultiFlo FX) automated dispenser, the 1.67× MAT2A enzyme solution was added to the compound test wells and negative control wells of a plate at 15 µL/well, and meanwhile, the 1× MAT2A assay buffer was added to the blank control wells at 15 µL/well. • c) Preparation and addition of compounds: The test compound was diluted from a 10 mM stock solution to 100 µM with DMSO, and the positive control drug AGI-24512 was diluted under the same conditions. Using a Tecan compound dispenser (D300e), the dilutions were automatically dispensed into each well according to a preset concentration gradient. The dispensed volume was minimal and considered negligible. The concentration gradient started at 1 µM (1/2 log dilution), and a total of 8 gradient points were set. The plate was centrifuged at 2500 rpm for 30 s and incubated at 25 °C for 30 min. • d) Preparation of ATP: 10 mM ATP (Sigma, A7699) was diluted to 700 µM with the 1× MAT2A assay buffer for later use. • e) Preparation and addition of mixed solution of substrate and ATP: A mixed solution was prepared containing the 5× MAT2A assay buffer (3 µL/well), 750 µM L-methionine (Adamas, 01100469) (2.5 µL/well), 700 µM ATP (2.5 µL/well), and double distilled water (2 µL/well). The total amount of the required mixed solution was prepared according to the number of detection wells. Using a BioTek (MultiFlo FX) automated dispenser, the mixed solution was added at 10 µL/well. The resulting mixture was centrifuged at 2500 rpm for 30 s and allowed to react at 25 °C for 150 min. • f) Addition of Biomol Green detection reagent: Using a BioTek (MultiFlo FX) automated dispenser, Biomol Green (Enzo, BML-AK111) was added at 50 µL/well. The plate was centrifuged at 2500 rpm for 30 s and incubated at 25 °C for 20 min. • g) After the reaction was completed, the OD620 values were measured using a Perkin Elmer (Envision 2105) multimode microplate reader.
The inhibition rate was calculated using the following formula: Inhibition rate % = (ODmax −ODsample)/(ODmax −ODmin) × 100% [formula] where: • ODsample represents the OD620 value of the sample well; • ODmin represents the mean OD620 value of the blank control wells containing no enzyme and no test compound; • ODmax represents the mean OD620 value of the negative control wells containing enzyme but no compound. […]

[1] = Heating experiment via DSC followed by XRD; assay type: physicochemical; conditions: Heating temperature 110 °C
From the text: The heated samples were then collected and subjected to XRD analysis. Table 27: Summary of heating test results for various crystal forms

[2] = Room-temperature solubility in solvents; assay type: physicochemical; conditions: thermodynamic from solid, read-out: Solubility S
Method: Determination of the solubility of the crystal form G was conducted in 20 selected solvents at room temperature. A sample (about 2 mg) was weighed and added to a 3-mL vial, and the corresponding solvent listed in Table 29 below was added (100 µL each time) until the solid was dissolved. If the solid was still not completely dissolved after 2 mL of the solvent was added, further addition was stopped. The solubility range in the corresponding solvent was calculated according to the mass of the sample and the volume of the solvent. Table 29: Solubility ranges of crystal form G at room temperature

[3] = Dynamic solubility in buffers and water (HPLC, XRD of remaining solid); assay type: physicochemical; conditions: 37 °C; for solubility at 1 h / solubility at 4 h / solubility at 24 h: thermodynamic from solid, feed concentration 10 mg/mL
Method: 2.1. Hydrochloric acid solution at pH 1.0: A specified amount (9.00 mL) of hydrochloric acid was taken, diluted to 1000 mL with water, and shaken well to give the desired solution.
0.2 mol/L potassium dihydrogen phosphate solution: 27.22 g of potassium dihydrogen phosphate was taken, and dissolved and diluted to 1000 mL with water.
0.2 mol/L sodium hydroxide solution: 8.00 g of sodium hydroxide was taken, and dissolved and diluted to 1000 mL with water.
250 mL of a 0.2 mol/L potassium dihydrogen phosphate solution was taken and mixed with the specified amount of a 0.2 mol/L sodium hydroxide solution indicated in the table below. Then, the mixture was diluted to 1000 mL with water and shaken well to give the desired solution. Table 23: Phosphate buffer
Determination of the 1-, 4-, and 24-hour solubilities of the sample in four solvent systems (pH 1.0 buffer, pH 4.5 buffer, pH 6.8 buffer, and water) was conducted with a feed concentration of 10 mg/mL by shaking (400 rpm) at 37 °C. At each time point, a sample was taken, centrifuged (10000 rpm, 2 min), and filtered (through a 0.22 µm PTFE filter membrane, with the initial filtrate discarded). The HPLC concentration of the filtrate was then determined, and the remaining solid was subjected to XRD analysis. Table 30. Summary of dynamic solubility test results for crystal form G

T1 sequence (P31153 whole entry): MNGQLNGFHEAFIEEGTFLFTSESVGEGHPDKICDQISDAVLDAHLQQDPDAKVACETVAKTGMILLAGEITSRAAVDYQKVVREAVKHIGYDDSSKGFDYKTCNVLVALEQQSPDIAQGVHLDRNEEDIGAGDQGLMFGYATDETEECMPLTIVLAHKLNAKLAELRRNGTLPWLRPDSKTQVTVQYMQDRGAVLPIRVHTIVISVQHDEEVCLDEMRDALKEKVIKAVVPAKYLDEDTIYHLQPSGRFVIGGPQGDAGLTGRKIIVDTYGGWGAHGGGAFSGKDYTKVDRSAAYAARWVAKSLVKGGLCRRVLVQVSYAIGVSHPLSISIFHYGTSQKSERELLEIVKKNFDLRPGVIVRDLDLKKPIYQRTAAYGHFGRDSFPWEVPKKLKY

IC50 (MAT2A enzyme): 26.8 nM
Compound: Cc1[nH]c2c(N3CCCCC3)c(-c3ccccc3)nn2c(=O)c1-c1ccc(O)cc1 [AGI-24512, reference compound]

After heating (crystal form) [1]: Crystal form A
solubility ([2]; organic solvent or mixture, 1,4-Dioxane, room temperature): 4800 to 6300 µg/mL (≈ 10400 to 13700 µM)
solubility ([2]; organic solvent or mixture, ACN, room temperature): ~1100 µg/mL (≈ 2390 µM)
solubility ([2]; organic solvent or mixture, ACN/H2O (10:1), room temperature): < 1100 µg/mL
solubility ([2]; organic solvent or mixture, Acetone, room temperature): ~1000 µg/mL (≈ 2180 µM)
solubility ([2]; organic solvent or mixture, CHCl3, room temperature): > 10500 µg/mL
solubility ([2]; organic solvent or mixture, DCM, room temperature): 1900 to 2300 µg/mL (≈ 4140 to 5010 µM)
solubility ([2]; organic solvent or mixture, DMAc, room temperature): > 40000 µg/mL
solubility ([2]; organic solvent or mixture, DMF, room temperature): 21000 to 42000 µg/mL (≈ 45700 to 91400 µM)
solubility ([2]; organic solvent or mixture, DMSO, room temperature): 9500 to 19000 µg/mL (≈ 20700 to 41400 µM)
solubility ([2]; organic solvent or mixture, EtOAc, room temperature): 1100 to 2200 µg/mL (≈ 2390 to 4790 µM)
solubility ([2]; organic solvent or mixture, EtOH, room temperature): ~1200 µg/mL (≈ 2610 µM)
solubility ([2]; organic solvent or mixture, IPA, room temperature): ~1000 µg/mL (≈ 2180 µM)
solubility ([2]; organic solvent or mixture, IPAc, room temperature): ~1100 µg/mL (≈ 2390 µM)
solubility ([2]; organic solvent or mixture, MEK, room temperature): 5300 to 10500 µg/mL (≈ 11500 to 22900 µM)
solubility ([2]; organic solvent or mixture, MIBK, room temperature): 2000 to 2500 µg/mL (≈ 4350 to 5440 µM)
solubility ([2]; organic solvent or mixture, MTBE, room temperature): < 1100 µg/mL
solubility ([2]; organic solvent or mixture, MeOH, room temperature): 3710 to 5500 µg/mL (≈ 8070 to 12000 µM)
solubility ([2]; organic solvent or mixture, MeOH/DCM (1:1), room temperature): 5000 to 10000 µg/mL (≈ 10900 to 21800 µM)
solubility ([2]; organic solvent or mixture, THF, room temperature): 7000 to 10500 µg/mL (≈ 15200 to 22900 µM)
solubility ([2]; water, H2O, room temperature): < 1100 µg/mL
Crystal form change ([3]; H2O, 1 h): Yes
Crystal form change ([3]; H2O, 4 h): Yes
Crystal form change ([3]; H2O, 24 h): Yes
Crystal form change ([3]; pH 1.0, 1 h): Yes
Crystal form change ([3]; pH 1.0, 4 h): Yes
Crystal form change ([3]; pH 1.0, 24 h): Yes
solubility at 1 h ([3]; pH 1.0 buffer, simulated gastric fluid, pH 1.0, 1 h): 0.32 µg/mL (≈ 0.696 µM)
solubility at 4 h ([3]; pH 1.0 buffer, simulated gastric fluid, pH 1.0, 4 h): 0.16 µg/mL (≈ 0.348 µM)
solubility at 24 h ([3]; pH 1.0 buffer, simulated gastric fluid, pH 1.0, 24 h): 0.12 µg/mL (≈ 0.261 µM)
Crystal form change ([3]; pH 4.5, 1 h): Yes
Crystal form change ([3]; pH 4.5, 4 h): Yes
Crystal form change ([3]; pH 4.5, 24 h): Yes
solubility at 4 h ([3]; pH 4.5 buffer, aqueous buffer, pH 4.5, 4 h): 0.07 µg/mL (≈ 0.152 µM)
solubility at 24 h ([3]; pH 4.5 buffer, aqueous buffer, pH 4.5, 24 h): 0.08 µg/mL (≈ 0.174 µM)
Crystal form change ([3]; pH 6.8, 1 h): Yes
Crystal form change ([3]; pH 6.8, 4 h): Yes
Crystal form change ([3]; pH 6.8, 24 h): Yes
solubility at 24 h ([3]; pH 6.8 buffer, aqueous buffer, pH 6.8, 24 h): 0.06 µg/mL (≈ 0.131 µM)
solubility at 1 h ([3]; water, H2O, 1 h): 0.13 µg/mL (≈ 0.283 µM)
solubility at 4 h ([3]; water, H2O, 4 h): 0.09 µg/mL (≈ 0.196 µM)
Compound: Cn1cc2cc(-c3nn4ccc(C5CC5)nc4c(-c4ccc(OC(F)F)cc4)c3=O)ccc2n1 [Crystal form G, 2-cyclopropyl-9-[4-(difluoromethoxy)phenyl]-7-(2-methyl-2H-indazol-5-yl)-8H-pyrimido[1,2-b]pyridazin-8-one]
